The values below come from US20200054057A1, “USE OF ACETYLENIC FATTY ACID COMPOUNDS AS KOKUMI FLAVOR” (Takasago International Corporation, priority 2017, published 2020).

Entries after “also recorded” stand apart in the source; their conditions may differ. Where only a bound is given, the exact number is not on record here.

Assay [1] relates to trained sensory panel. The experiment in a line: Taste recognition thresholds for kokumi/mouthfulness enhancement, duo-trio tests in chanterelle flavor recombinant. The class given is in vivo, human. Conditions: for Kokumi threshold: in recombinant chanterelle flavor, pH 5.8, duo-trio test; for Kokumi effect (in words): vis-à-vis recombinant chanterelle flavor. The protocol:
An artificial chanterelle flavor recombinant was used as a reference flavor for determining the flavor-enhancing effect of the compounds to be tested. The pH value was adjusted to 5.8 with trace amounts of formic acid: Seventeen trained assessors (ten women and seven men, ages 23-30) were recruited from the Chair of Food Chemistry and Molecular Sensory Science (TUM). The sensory sessions were performed at 22° C. in air-conditioned sensory booths. To prevent cross-modal interactions with odorants, the panelists used nose-clips. Furthermore the light in the sensory booths was adjusted to yellow in order to eliminate optical differences between the samples. The taste threshold concentrations of the purified compounds were determined in the above-described chanterelle flavor recombinant using duo-trio-tests. The pH value of the individual samples and blanks was adjusted to 5.8 by adding trace amounts of formic acid. The samples were presented in serial 1:2 dilutions in order of increasing concentrations to the trained panel and the panelists were asked to mark the sample differing from the recombinant which was used as constant reference (one sample was identical to the reference, one sample was different). The threshold value of the sensory panel was approximated by averaging the threshold values of the individual panelists in two independent sessions.

The test system of assay [2] is trained sensory panel. The experiment in a line: Intrinsic taste recognition thresholds, three-alternative forced choice tests in 1% ethanol. Particulars: in 1% ethanol/water; for Intrinsic taste threshold: three-alternative forced choice; for Intrinsic taste quality: taste recognized at threshold. The class given is in vivo, human. The protocol:
Seventeen trained assessors (ten women and seven men, ages 23-30) were recruited from the Chair of Food Chemistry and Molecular Sensory Science (TUM). The sensory sessions were performed at 22° C. in air-conditioned sensory booths. To prevent cross-modal interactions with odorants, the panelists used nose-clips. Furthermore the light in the sensory booths was adjusted to yellow in order to eliminate optical differences between the samples. The human recognition thresholds for the intrinsic taste of the purified compounds were determined by means of three-alternative forced choice tests in 1% ethanol. Serial 1:2 dilutions of the sample were presented in order of increasing concentrations to the panelists using the sip-and-spit-method. The geometric mean of the last and the next-to-last concentrations were calculated and taken as the individual recognition threshold. The threshold values evaluated in two different sessions were averaged.

On to `O=C(O)CCCCCCC/C=C\CC#CC(O)/C=C/C(O)CO` (stereo not drawn) [Compound 1, (9Z,15E)-14,17,18-trihydroxy-9,15-octadecadien-12-ynoic acid], for which, in the assay on trained sensory panel [1], the Kokumi threshold was 59 µmol/L. Besides, in the assay with trained sensory panel [2], the Intrinsic taste threshold is more than 1000 µmol/L.
Regarding `O=C(O)CCCCCCC/C=C\C=C/CC(O)CCC(O)CO` (stereo not drawn) [Compound 2, (9Z,11Z)-14,17,18-trihydroxy-9,11-octadecadienoic acid], the “Kokumi effect (in words)” value in the assay with trained sensory panel [1] is on record as “did not exhibit a kokumi effect; also recorded: do not exhibit a kokumi flavor”. Besides, in the assay with trained sensory panel [2], the Intrinsic taste quality entry was “[bitter]” and the Intrinsic taste threshold is 331 µmol/L.
In the same order, the values of `O=C(O)CCCCCCC/C=C\C=C/CC(O)CCCCO` (stereo not drawn) [Compound 3, (9Z,11Z)-14,18-dihydroxyoctadeca-9,11-dienoic acid] are “did not exhibit a kokumi effect; also recorded: do not exhibit a kokumi flavor”, “[bitter]” and 281 µmol/L.
As to `CCC/C=C\C#C/C=C/C(O)CCCCCCCC(=O)O` (stereo not drawn) [Compound 4, (10E,14Z)-9-hydroxy-10,14-octadecadien-12-ynoic acid], the Kokumi threshold in the assay with trained sensory panel [1] came to 69 µmol/L. Besides, in the assay with trained sensory panel [2], the Intrinsic taste quality entry was “[astringent]” and the Intrinsic taste threshold was found to be 320 µmol/L.
As to `CC/C=C/C(=O)C#CC/C=C\CCCCCCCC(=O)O` [Compound 5, (9Z,15E)-14-oxo-9,15-octadecadien-12-ynoic acid], the Kokumi threshold in the assay on trained sensory panel [1] turned out to be 19 µmol/L. Besides, in the assay with trained sensory panel [2], the Intrinsic taste quality entry was “[pungent]” and the Intrinsic taste threshold amounted to 228 µmol/L.
As for `CCC/C=C\C#C/C=C/C(=O)CCCCCCCC(=O)O` [Compound 6, (10E,14Z)-9-oxo-10,14-octadecadien-12-ynoic acid], in the assay with trained sensory panel [1], the Kokumi threshold stood at 79 µmol/L. In the assay on trained sensory panel [2], the Intrinsic taste quality entry was “[astringent]” and the Intrinsic taste threshold was determined as 639 µmol/L.
Consider `CCC/C=C\CC(O)/C=C/CCCCCCCCC(=O)O` (stereo not drawn) [Compound 8, (10E,14Z)-12-hydroxy-10,14-octadecadienoic acid], for which, in the assay with trained sensory panel [1], the “Kokumi effect (in words)” value was “did not exhibit a kokumi effect; also recorded: do not exhibit a kokumi flavor”. In the assay on trained sensory panel [2], the Intrinsic taste quality result is “[bitter]” and the Intrinsic taste threshold was found to be 297 µmol/L.
For `CC/C=C/C(=O)C#CC/C=C\CCCCCCCC(=O)OC` [Compound 9, (9Z,15E)-14-oxo-9,15-octadecadien-12-ynoic acid methyl ester], in the assay with trained sensory panel [1], the Kokumi threshold was determined as 59 µmol/L.
Turning to `CCC/C=C\C#C/C=C/C(CCCCCCCC(=O)O)OO` (stereo not drawn) [Compound 10, (10E,14Z)-9-hydroperoxy-10,14-octadecadien-12-ynoic acid], the Kokumi threshold in the assay with trained sensory panel [1] came to 38 µmol/L. Besides, in the assay with trained sensory panel [2], the Intrinsic taste quality result was “[bitter]” and the Intrinsic taste threshold stood at 536 µmol/L.
In the case of `CCC/C=C\C#CC/C=C\CCCCCCCC(=O)O` [Compound 11, 14,15-dehydrocrepenynic acid], the Kokumi threshold with trained sensory panel [1] is 105 µmol/L. For the same compound, in the assay on trained sensory panel [2], the Intrinsic taste quality entry is “[bitter]” and the Intrinsic taste threshold is 531 µmol/L.
Regarding `CCC/C=C\C#CC/C=C\CCCCCCCC(=O)OC` [Compound 12, 14,15-dehydrocrepenynic acid methyl ester], the Kokumi threshold in the assay on trained sensory panel [1] is 32 µmol/L. Further, in the assay with trained sensory panel [2], the Intrinsic taste quality result is “[astringent]” and the Intrinsic taste threshold amounted to 648 µmol/L.
On to `CCC/C=C\C#CC/C=C\CCCCCCCC(=O)OCC` [Compound 13, 14,15-dehydrocrepenynic acid ethyl ester], for which the Kokumi threshold in the assay with trained sensory panel [1] amounted to 59 µmol/L. In addition, in the assay with trained sensory panel [2], the Intrinsic taste quality entry is “[astringent]” and the Intrinsic taste threshold worked out at 512 µmol/L.
`CCCCCC/C=C/C#CCCCCCCCC(=O)O` [ximenynic acid, 11E-octadecen-9-ynoic acid, reference compound]: the Kokumi threshold in the assay with trained sensory panel [1] was determined as 84 µmol/L. Moreover, in the assay on trained sensory panel [2], the Intrinsic taste quality result was “[bitter]” and the Intrinsic taste threshold turned out to be 482 µmol/L.
